Results reported in publication PMC5218480 (PLoS ONE, 2017).

Tested on: MV-4-11 cells
Experiment: Gene expression microarray analysis (Affymetrix PrimeView) and GSEA
Format: cell-based, human
Set-up: RFU PODN (11730768_x_at) / Fold change /veh PODN (11730768_x_at) / RFU LINC00158 (11744669_a_at) / Fold change /veh LINC00158 (11744669_a_at) / RFU DUSP10 (11751237_a_at) / Fold change /veh DUSP10 (11751237_a_at) / RFU ID3 (11757404_x_at) / Fold change /veh ID3 (11757404_x_at) / RFU PLEKHG5 (11737974_s_at) / Fold change /veh PLEKHG5 (11737974_s_at) / RFU LRRC4B (11730491_at) / Fold change /veh LRRC4B (11730491_at) / RFU GIMAP4 (11747438_a_at) / Fold change /veh GIMAP4 (11747438_a_at) / RFU KRT8 (11758183_x_at) / Fold change /veh KRT8 (11758183_x_at) / RFU CNN1 (11734310_a_at) / Fold change /veh CNN1 (11734310_a_at) / RFU VPS37D (11726825_at) / Fold change /veh VPS37D (11726825_at) / RFU C10orf10 (11716522_x_at) / Fold change /veh C10orf10 (11716522_x_at) / RFU KIR2DL2 /// KIR2DL4 /// KIR2DL5A /// KIR2DL5B /// KIR2DS1 /// KIR2DS2 /// KIR2DS3 /// KIR2DS4 /// KIR3DL3 /// KIR3DL3 /// KIR3DS1 (11738374_at) / Fold change /veh KIR2DL2 /// KIR2DL4 /// KIR2DL5A /// KIR2DL5B /// KIR2DS1 /// KIR2DS2 /// KIR2DS3 /// KIR2DS4 /// KIR3DL3 /// KIR3DL3 /// KIR3DS1 (11738374_at) / RFU C1QL1 (11718748_at) / Fold change /veh C1QL1 (11718748_at) / RFU TMPRSS4 (11747572_a_at) / Fold change /veh TMPRSS4 (11747572_a_at) / RFU HAMP (11756126_x_at) / Fold change /veh HAMP (11756126_x_at) / RFU RNFT2 (11725882_a_at) / Fold change /veh RNFT2 (11725882_a_at) / RFU NR4A2 (11747474_a_at) / Fold change /veh NR4A2 (11747474_a_at) / RFU ABCC12 (11746883_a_at) / Fold change /veh ABCC12 (11746883_a_at) / RFU TMEM136 (11760407_x_at) / Fold change /veh TMEM136 (11760407_x_at) / RFU CLDN22 /// WWC2 (11732394_at) / Fold change /veh CLDN22 /// WWC2 (11732394_at) / RFU HLA-DPB1 (11760878_x_at) / Fold change /veh HLA-DPB1 (11760878_x_at) / RFU SPINT1 (11716480_a_at) / Fold change /veh SPINT1 (11716480_a_at) / RFU GAP43 (11754022_s_at) / Fold change /veh GAP43 (11754022_s_at) / RFU A4GNT (11735810_at) / Fold change /veh A4GNT (11735810_at) / RFU PRB3 (11715151_x_at) / Fold change /veh PRB3 (11715151_x_at) / RFU TUBB4B (11761932_at) / Fold change /veh TUBB4B (11761932_at) / RFU CAPN14 (11732068_a_at) / Fold change /veh CAPN14 (11732068_a_at) / RFU TMCC2 (11721928_a_at) / Fold change /veh TMCC2 (11721928_a_at) / RFU IRGQ (11745062_a_at) / Fold change /veh IRGQ (11745062_a_at) / RFU FAM174B (11720279_a_at) / Fold change /veh FAM174B (11720279_a_at) / RFU TMPRSS4 (11748680_a_at) / Fold change /veh TMPRSS4 (11748680_a_at) / RFU FAM212B (11763350_a_at) / Fold change /veh FAM212B (11763350_a_at) / RFU PLEKHG5 (11743358_a_at) / Fold change /veh PLEKHG5 (11743358_a_at) / RFU ZSCAN30 (11745921_a_at) / Fold change /veh ZSCAN30 (11745921_a_at) / RFU CMKLR1 (11741424_a_at) / Fold change /veh CMKLR1 (11741424_a_at) / RFU LOC101060620 /// MAPK8IP1 (11723275_at) / Fold change /veh LOC101060620 /// MAPK8IP1 (11723275_at) / RFU SPTSSB (11747773_x_at) / Fold change /veh SPTSSB (11747773_x_at) / RFU PRSS12 (11739890_at) / Fold change /veh PRSS12 (11739890_at) / RFU BIN1 (11741810_x_at) / Fold change /veh BIN1 (11741810_x_at) / RFU WNT11 (11732464_a_at) / Fold change /veh WNT11 (11732464_a_at) / RFU C10orf10 (11716521_a_at) / Fold change /veh C10orf10 (11716521_a_at) / RFU C5orf56 (11738089_at) / Fold change /veh C5orf56 (11738089_at) / RFU CYB561 (11721691_x_at) / Fold change /veh CYB561 (11721691_x_at) / RFU ANKRD19P (11752326_a_at) / Fold change /veh ANKRD19P (11752326_a_at) / RFU OR2T12 /// OR2T33 /// OR2T8 (11738714_s_at) / Fold change /veh OR2T12 /// OR2T33 /// OR2T8 (11738714_s_at) / RFU VCAN (11748164_a_at) / Fold change /veh VCAN (11748164_a_at) / RFU JSRP1 (11732532_at) / Fold change /veh JSRP1 (11732532_at) / RFU KRTAP10-11 (11738290_x_at) / Fold change /veh KRTAP10-11 (11738290_x_at) / RFU MYO3A (11730013_a_at) / Fold change /veh MYO3A (11730013_a_at) / RFU EBF3 (11725865_a_at) / Fold change /veh EBF3 (11725865_a_at) / RFU CAMK2N1 (11719241_x_at) / Fold change /veh CAMK2N1 (11719241_x_at) / RFU C5orf56 (11738088_a_at) / Fold change /veh C5orf56 (11738088_a_at) / RFU OLFML3 (11715873_a_at) / Fold change /veh OLFML3 (11715873_a_at) / RFU LOC100653217 /// NTM (11731650_a_at) / Fold change /veh LOC100653217 /// NTM (11731650_a_at) / RFU MAPK11 (11762145_a_at) / Fold change /veh MAPK11 (11762145_a_at) / RFU FIZ1 (11724087_x_at) / Fold change /veh FIZ1 (11724087_x_at) / RFU OASL (11726364_x_at) / Fold change /veh OASL (11726364_x_at) / RFU SOX15 (11748057_x_at) / Fold change /veh SOX15 (11748057_x_at) / RFU CD79A (11719716_a_at) / Fold change /veh CD79A (11719716_a_at) / RFU HIST1H1D (11736915_at) / Fold change /veh HIST1H1D (11736915_at) / RFU CASKIN2 (11723855_a_at) / Fold change /veh CASKIN2 (11723855_a_at) / RFU LOC730098 (11760151_x_at) / Fold change /veh LOC730098 (11760151_x_at) / RFU OR4N2 (11742367_at) / Fold change /veh OR4N2 (11742367_at) / RFU PRRT2 (11749266_a_at) / Fold change /veh PRRT2 (11749266_a_at) / RFU SNX32 (11753110_a_at) / Fold change /veh SNX32 (11753110_a_at) / RFU CDHR5 (11726645_a_at) / Fold change /veh CDHR5 (11726645_a_at) / RFU RCAN1 (11760418_a_at) / Fold change /veh RCAN1 (11760418_a_at) / RFU FAM167A (11723789_a_at) / Fold change /veh FAM167A (11723789_a_at) / RFU FAM26E (11764081_at) / Fold change /veh FAM26E (11764081_at) / RFU ISYNA1 (11749810_s_at) / Fold change /veh ISYNA1 (11749810_s_at) / RFU ACY1 (11761880_at) / Fold change /veh ACY1 (11761880_at) / RFU 11764098_at / Fold change /veh 11764098_at / RFU SAMD14 (11745864_x_at) / Fold change /veh SAMD14 (11745864_x_at) / RFU NPB (11741838_a_at) / Fold change /veh NPB (11741838_a_at) / RFU TMPRSS6 (11731388_a_at) / Fold change /veh TMPRSS6 (11731388_a_at) / RFU KRTAP10-2 (11738614_at) / Fold change /veh KRTAP10-2 (11738614_at) / RFU ARHGAP8 /// PRR5-ARHGAP8 (11727945_x_at) / Fold change /veh ARHGAP8 /// PRR5-ARHGAP8 (11727945_x_at) / RFU KRTAP5-7 /// NADSYN1 (11734609_at) / Fold change /veh KRTAP5-7 /// NADSYN1 (11734609_at) / RFU RASL12 (11751679_a_at) / Fold change /veh RASL12 (11751679_a_at) / RFU CDKN2B (11736163_a_at) / Fold change /veh CDKN2B (11736163_a_at) / RFU PRF1 (11729649_at) / Fold change /veh PRF1 (11729649_at) / RFU, ZNF638 /// ZNF638-IT1 / Fold change vs veh, ZNF638 /// ZNF638-IT1 / RFU, PANK3 / Fold change vs veh, PANK3 / RFU, SH3YL1 / Fold change vs veh, SH3YL1 / RFU, ZEB2 / Fold change vs veh, ZEB2 / RFU, NRIP1 / Fold change vs veh, NRIP1 / RFU, PTTG1IP / Fold change vs veh, PTTG1IP / RFU, CAPN2 / Fold change vs veh, CAPN2 / RFU, MED14 / Fold change vs veh, MED14 / RFU, SNORA58 / Fold change vs veh, SNORA58 / RFU, C1orf63 / Fold change vs veh, C1orf63 / RFU, LRRFIP1 / Fold change vs veh, LRRFIP1 / RFU, NDUFAF7 / Fold change vs veh, NDUFAF7 / RFU, SLC12A2 / Fold change vs veh, SLC12A2 / RFU, IBTK / Fold change vs veh, IBTK / RFU, ESF1 / Fold change vs veh, ESF1 / Fold change vs veh, TMEM50B / RFU, TAOK1 / Fold change vs veh, TAOK1 / RFU, ACBD3 / Fold change vs veh, ACBD3 / RFU, TMA16 / Fold change vs veh, TMA16 / RFU, RWDD3 / Fold change vs veh, RWDD3 / RFU, BCAT1 / Fold change vs veh, BCAT1 / RFU, EDEM3 / Fold change vs veh, EDEM3 / RFU, TMEM33 / Fold change vs veh, TMEM33 / RFU, WDR75 / Fold change vs veh, WDR75 / RFU, AHCTF1 / Fold change vs veh, AHCTF1 / RFU, TFRC / Fold change vs veh, TFRC / RFU, ZDHHC17 / Fold change vs veh, ZDHHC17 / RFU, NOM1 / Fold change vs veh, NOM1 / RFU, ARL8B / Fold change vs veh, ARL8B / RFU, ZBTB11 / Fold change vs veh, ZBTB11 / RFU, TAMM41 / Fold change vs veh, TAMM41 / RFU, KIAA1704 /// LOC100996395 / Fold change vs veh, KIAA1704 /// LOC100996395 / RFU, ING1 / Fold change vs veh, ING1 / RFU, TRMT61B / Fold change vs veh, TRMT61B / RFU, FUBP3 / Fold change vs veh, FUBP3 / RFU, TP53 / Fold change vs veh, TP53 / RFU, TNKS2 / Fold change vs veh, TNKS2 / RFU, ZFP14 / Fold change vs veh, ZFP14 / RFU, ACTR2 / Fold change vs veh, ACTR2 / RFU, PPP3R1 / Fold change vs veh, PPP3R1 / RFU, PIK3R1 / Fold change vs veh, PIK3R1 / RFU, HNRNPA1 / Fold change vs veh, HNRNPA1 / RFU, RNF170 / Fold change vs veh, RNF170 / RFU, ZNF28 / Fold change vs veh, ZNF28 / RFU, RNGTT / Fold change vs veh, RNGTT / RFU, OGT / Fold change vs veh, OGT / RFU, BRD1 / Fold change vs veh, BRD1 / RFU, MARS / Fold change vs veh, MARS / RFU, ZNF655 / Fold change vs veh, ZNF655 / RFU, FAHD1 / Fold change vs veh, FAHD1 / RFU, BDP1 / Fold change vs veh, BDP1 / RFU, LRRCC1 / Fold change vs veh, LRRCC1 / RFU, ARID1A / Fold change vs veh, ARID1A / RFU, ZNF146 / Fold change vs veh, ZNF146 / RFU, ZNF330 / Fold change vs veh, ZNF330 / RFU, GPN3 / Fold change vs veh, GPN3 / RFU, C9orf123 / Fold change vs veh, C9orf123 / RFU, N4BP2L2 / Fold change vs veh, N4BP2L2 / RFU, ARFIP1 / Fold change vs veh, ARFIP1 / RFU, FAM179B / Fold change vs veh, FAM179B / RFU, BCL10 / Fold change vs veh, BCL10 / RFU, UHRF1BP1L / Fold change vs veh, UHRF1BP1L / RFU, BET1 / Fold change vs veh, BET1 / RFU, CNOT2 / Fold change vs veh, CNOT2 / RFU, ZNF268 / Fold change vs veh, ZNF268 / Fold change vs veh, ZNF507 / RFU, DGCR2 / Fold change vs veh, DGCR2 / RFU, WDSUB1 / Fold change vs veh, WDSUB1 / Fold change vs veh, HSP90B1 /// MIR3652 / RFU, ADSS / Fold change vs veh, ADSS / RFU, GK / Fold change vs veh, GK / RFU, ZNF148 / Fold change vs veh, ZNF148 / RFU, TAF9 / Fold change vs veh, TAF9 / RFU, SLC1A5 / Fold change vs veh, SLC1A5 / RFU, SLMO2 / Fold change vs veh, SLMO2 / RFU, ABCC4 / Fold change vs veh, ABCC4 / RFU, LOC101060439 /// RAP1B / Fold change vs veh, LOC101060439 /// RAP1B / RFU, RFX7 / Fold change vs veh, RFX7 / RFU, GTPBP10 / Fold change vs veh, GTPBP10 / RFU, CNEP1R1 / Fold change vs veh, CNEP1R1 / RFU, BIVM-ERCC5 /// ERCC5 / Fold change vs veh, BIVM-ERCC5 /// ERCC5 / RFU, ILF3 / Fold change vs veh, ILF3 / RFU 11762660_at / Fold change /veh 11762660_at / RFU VCAN (11757783_s_at) / Fold change /veh VCAN (11757783_s_at) / RFU DDX43 (11728927_at) / Fold change /veh DDX43 (11728927_at) / RFU KRT8 (11758188_x_at) / Fold change /veh KRT8 (11758188_x_at) / RFU NKD1 (11759106_at) / Fold change /veh NKD1 (11759106_at) / RFU SRD5A1 (11742802_a_at) / Fold change /veh SRD5A1 (11742802_a_at) / RFU TPSAB1 /// TPSB2 (11721975_s_at) / Fold change /veh TPSAB1 /// TPSB2 (11721975_s_at) / RFU GSTM3 (11746129_a_at) / Fold change /veh GSTM3 (11746129_a_at) / RFU IL23R (11737362_x_at) / Fold change /veh IL23R (11737362_x_at) / RFU TMEM51 (11727254_a_at) / Fold change /veh TMEM51 (11727254_a_at) / RFU PIWIL2 (11732686_x_at) / Fold change /veh PIWIL2 (11732686_x_at) / RFU ORM1 (11744905_x_at) / Fold change /veh ORM1 (11744905_x_at) / RFU CCDC152 (11743942_at) / Fold change /veh CCDC152 (11743942_at) / RFU ECM1 (11717891_a_at) / Fold change /veh ECM1 (11717891_a_at) / RFU IL23R (11748794_a_at) / Fold change /veh IL23R (11748794_a_at) / RFU TNFAIP8L3 (11732012_x_at) / Fold change /veh TNFAIP8L3 (11732012_x_at) / RFU MBOAT4 (11741988_at) / Fold change /veh MBOAT4 (11741988_at) / RFU 11764193_at / Fold change /veh 11764193_at / RFU TMEM53 (11763286_at) / Fold change /veh TMEM53 (11763286_at) / RFU MAGEB2 (11727129_at) / Fold change /veh MAGEB2 (11727129_at) / RFU TMEM200A (11744735_a_at) / Fold change /veh TMEM200A (11744735_a_at) / RFU CCDC152 (11751479_a_at) / Fold change /veh CCDC152 (11751479_a_at) / RFU FAM211A (11726209_a_at) / Fold change /veh FAM211A (11726209_a_at) / RFU RGS16 (11746705_a_at) / Fold change /veh RGS16 (11746705_a_at) / RFU VCAN (11755009_s_at) / Fold change /veh VCAN (11755009_s_at) / RFU RHOB (11743442_s_at) / Fold change /veh RHOB (11743442_s_at) / RFU RGS16 (11720943_a_at) / Fold change /veh RGS16 (11720943_a_at) / RFU RGS16 (11720944_at) / Fold change /veh RGS16 (11720944_at) / RFU, VPS4B / Fold change vs veh, VPS4B / RFU, CREB1 / Fold change vs veh, CREB1 / RFU, DNAJC13 / Fold change vs veh, DNAJC13 / RFU, GNAQ / Fold change vs veh, GNAQ / RFU, CDK5R1 / Fold change vs veh, CDK5R1 / RFU, ZRANB3 / Fold change vs veh, ZRANB3 / RFU, CUL4A / Fold change vs veh, CUL4A / RFU, CCNY / Fold change vs veh, CCNY / RFU, UFL1 / Fold change vs veh, UFL1 / RFU, COG3 / Fold change vs veh, COG3 / RFU, DIAPH2 / Fold change vs veh, DIAPH2 / RFU, SKA2 / Fold change vs veh, SKA2 / RFU, AFF3 / Fold change vs veh, AFF3 / RFU, LMF1 / Fold change vs veh, LMF1 / RFU, IPO11 / Fold change vs veh, IPO11 / RFU, DFFB / Fold change vs veh, DFFB / RFU, FOXP1 / Fold change vs veh, FOXP1 / RFU, CARD8 / Fold change vs veh, CARD8 / RFU, STRN3 / Fold change vs veh, STRN3 / RFU, ADK / Fold change vs veh, ADK / RFU, RASSF2 / Fold change vs veh, RASSF2 / RFU, WIPF1 / Fold change vs veh, WIPF1 / RFU, LARP1B / Fold change vs veh, LARP1B / RFU, RASA1 / Fold change vs veh, RASA1 / RFU, RB1 / Fold change vs veh, RB1 / RFU, PPFIA1 / Fold change vs veh, PPFIA1 / RFU, MAT2A / Fold change vs veh, MAT2A / RFU, CCT5 / Fold change vs veh, CCT5 / RFU, WDR92 / Fold change vs veh, WDR92 / RFU, CUX1 / Fold change vs veh, CUX1 / RFU, TTC7A / Fold change vs veh, TTC7A / RFU, TMEM135 / Fold change vs veh, TMEM135 / RFU, DEPTOR / Fold change vs veh, DEPTOR / RFU, CPM / Fold change vs veh, CPM / RFU, DNAJB6 / Fold change vs veh, DNAJB6 / RFU, CACNA2D3 / Fold change vs veh, CACNA2D3 / RFU, DTX4 / Fold change vs veh, DTX4 / RFU, TFCP2 / Fold change vs veh, TFCP2 / RFU, GMCL1 /// GMCL1P1 / Fold change vs veh, GMCL1 /// GMCL1P1 / RFU, AEBP2 / Fold change vs veh, AEBP2 / RFU, SNHG1 /// SNORD22 /// SNORD25 /// SNORD26 /// SNORD27 /// SNORD28 /// SNORD29 /// SNORD31 / Fold change vs veh, SNHG1 /// SNORD22 /// SNORD25 /// SNORD26 /// SNORD27 /// SNORD28 /// SNORD29 /// SNORD31 / Fold change (Aza/veh), C12orf56 (ProbeSet 11735607_a_at) / Fold change (ACY-1035/veh), C12orf56 (ProbeSet 11735607_a_at) / Fold change (Aza/veh), FGFR1OP (ProbeSet 11751329_s_at) / Fold change (ACY-1035/veh), FGFR1OP (ProbeSet 11751329_s_at) / Fold change (Aza/veh), VPS36 (ProbeSet 11739960_a_at) / Fold change (ACY-1035/veh), VPS36 (ProbeSet 11739960_a_at) / RFU SYPL1 (11715823_x_at) / Fold change /veh SYPL1 (11715823_x_at) / RFU IGFBP7 (11715501_s_at) / Fold change /veh IGFBP7 (11715501_s_at) / RFU REEP3 (11722064_at) / Fold change /veh REEP3 (11722064_at) / RFU IGLL1 (11728026_x_at) / Fold change /veh IGLL1 (11728026_x_at): dose or concentration left out as unconfirmed
Conditions: ProbeSet 11749551_a_at; LIST B

## Nc1ncn([C@@H]2O[C@H](CO)[C@@H](O)[C@H]2O)c(=O)n1 [azacitidine]
  RFU, RNGTT: 56.67 RFU
